From article PMC4585962, “A peptide factor secreted by Staphylococcus pseudintermedius exhibits properties of both bacteriocins and virulence factors” (Scientific Reports, 2015)
No end group written: not given here. *: point of attachment. For = O=C*

Assays:
[1] = tested on: Escherichia coli K12; assay: MIC, microdilution assay; type: cell-based; settings: broth microdilution (CLSI), MHB, overnight 37 °C, OD 600 nm; highest concentration tested 100 μM
Description: (§1) The microbicidal activity of BacSp222 was determined using the microdilution method in compliance with Clinical and Laboratory Standards Institute (CLSI, for bacteria) guidelines M7-A7[57] and in compliance with the European Committee on Antimicrobial Susceptibility Testing - Subcommittee on Antifungal Susceptibility Testing (EUCAST-AFST, for fungi)[58]. Briefly, the microorganisms were cultivated in dedicated liquid media to reach the early exponential phase or, in the case of Streptococcus spp., grown overnight on agar MHB supplemented with 2.5% (v/v) lysed horse blood (LHB). Subsequently, the microorganisms were diluted to 1 × 10^6 CFU/ml (estimated using an Eddy Jet 2 automatic spiral plater, IUL) in MHB; in MHB supplemented with 5% (v/v) LHB (for streptococci); or, in the case of Candida albicans, in RPMI-1640 medium (Thermo) without L-Glu and phenol red, supplemented with 0.6 g/l L-Glu, 34.53 g/l 3-(N-morpholino)propanesulphonic acid and 18 g/l glucose, pH 7.0. Fifty microliters of microorganism suspension were mixed with an equal volume of appropriate medium containing serial 2- or 1.5-fold dilutions of BacSp222. After the cultures were incubated overnight at 37 °C, the optical density (OD) at 600 nm was measured. The minimal inhibitory concentration (MIC), calculated as a mean value from three independent measurements, was defined as the minimum peptide concentration for which an increase in OD was not observed compared to uninoculated broth.

[2] = tested on: Staphylococcus epidermidis ATCC 35547; assay: MIC, microdilution assay; type: cell-based; settings: broth microdilution (CLSI), MHB, overnight 37 °C, OD 600 nm; mean of three independent measurements
Description: as §1

[3] = tested on: Staphylococcus aureus MRSA USA300 strain FPR3757; assay: MIC, microdilution assay; type: cell-based; settings: broth microdilution (CLSI), MHB, overnight 37 °C, OD 600 nm; mean of three independent measurements
Description: as §1

[4] = tested on: Staphylococcus aureus KB/8658; assay: MIC, microdilution assay; type: cell-based; settings: broth microdilution (CLSI), MHB, overnight 37 °C, OD 600 nm; mean of three independent measurements
Description: as §1

[5] = tested on: Lactococcus lactis subsp. lactis ŁOCK 0871 strain 239; assay: MIC, microdilution assay; type: cell-based; settings: broth microdilution (CLSI), MHB, overnight 37 °C, OD 600 nm; mean of three independent measurements
Description: as §1

[6] = tested on: Klebsiella pneumoniae ATCC 13886; assay: MIC, microdilution assay; type: cell-based; settings: broth microdilution (CLSI), MHB, overnight 37 °C, OD 600 nm; highest concentration tested 100 μM
Description: as §1

[7] = tested on: Bacillus subtilis ATCC 6633; assay: MIC, microdilution assay; type: cell-based; settings: broth microdilution (CLSI), MHB, overnight 37 °C, OD 600 nm; mean of three independent measurements
Description: as §1

[8] = tested on: Serratia marcescens ATCC 274; assay: MIC, microdilution assay; type: cell-based; settings: broth microdilution (CLSI), MHB, overnight 37 °C, OD 600 nm; highest concentration tested 100 μM
Description: as §1

[9] = tested on: Streptococcus sanguinis PCM 2335; assay: MIC, microdilution assay; type: cell-based; settings: broth microdilution (CLSI), MHB with 5% lysed horse blood, overnight 37 °C, OD 600 nm; mean of three independent measurements
Description: as §1

[10] = tested on: Staphylococcus intermedius R-2725; assay: MIC, microdilution assay; type: cell-based; settings: broth microdilution (CLSI), MHB, overnight 37 °C, OD 600 nm; mean of three independent measurements
Description: as §1

[11] = tested on: Staphylococcus aureus DSM 26258 (CH91); assay: MIC, microdilution assay; type: cell-based; settings: broth microdilution (CLSI), MHB, overnight 37 °C, OD 600 nm; mean of three independent measurements
Description: as §1

[12] = tested on: Staphylococcus pseudintermedius 222; assay: MIC, microdilution assay; type: cell-based; settings: bacteriocin-producing strain; broth microdilution (CLSI), MHB, overnight 37 °C, OD 600 nm; mean of three independent measurements
Description: as §1

[13] = tested on: Micrococcus luteus ATCC 4698; assay: MIC, microdilution assay; type: cell-based; settings: broth microdilution (CLSI), MHB, overnight 37 °C, OD 600 nm; mean of three independent measurements
Description: as §1

[14] = tested on: Staphylococcus pseudintermedius LMG 22219; assay: MIC, microdilution assay; type: cell-based; settings: nonproducer strain; broth microdilution (CLSI), MHB, overnight 37 °C, OD 600 nm; mean of three independent measurements
Description: as §1

[15] = tested on: Staphylococcus saprophyticus ATCC 15305; assay: MIC, microdilution assay; type: cell-based; settings: broth microdilution (CLSI), MHB, overnight 37 °C, OD 600 nm; mean of three independent measurements
Description: as §1

[16] = tested on: Staphylococcus aureus ATCC 25923; assay: MIC, microdilution assay; type: cell-based; settings: broth microdilution (CLSI), MHB, overnight 37 °C, OD 600 nm; mean of three independent measurements
Description: as §1

[17] = tested on: S. aureus RN4220 (pCN68); assay: GFP release assay; type: cell-based, Staphylococcus aureus; settings: 2 × 10^6 CFU in PBS, 1 h 37 °C, 0.23 to 15 μM BacSp222, fluorescence of supernatant 480/510 nm
Description: The bacteria transformed with GFP-encoding plasmids (pCN68[59] for S. aureus RN4220; pALCP2G[60] for B. subtilis 1A751[61] and E. coli DH5α) were grown overnight in TSB supplemented with appropriate antibiotics, washed twice and finally suspended in PBS. Fifty microliters of the suspensions containing 2 × 10^6 CFU of bacteria were then incubated for 1 h at 37 °C with serial dilutions of BacSp222 at concentrations ranging from 0.23 to 15 μM. Then, the bacteria were spun down, and the fluorescence in the supernatant was determined (Synergy H1 microplate reader, BioTek, 480/510 nm excitation/emission wavelengths). As the controls for 100% GFP release, S. aureus and B. subtilis were lysed using lysostaphin and chicken egg white lysozyme (Sigma), respectively, whereas the E. coli cells were disrupted by ultrasonication.

Substance: For-MAGLLRFLLSKGRALYNWAKSHVGKVWEWLKSGATYEQIKEWIENALGWR [BacSp222]
- MIC ± SD [1]: >100 µM
- MIC ± SD [2]: 4.40 ± 0.00 µM
- MIC ± SD [3]: 0.89 ± 0.00 µM
- MIC ± SD [4]: 1.30 ± 0.00 µM
- MIC ± SD [5]: 0.89 ± 0.00 µM
- MIC ± SD [6]: >100 µM
- MIC ± SD [7]: 0.16 ± 0.00 µM
- MIC ± SD [8]: >100 µM
- MIC ± SD [9]: 3.50 ± 0.85 µM
- MIC ± SD [10]: 1.20 ± 0.24 µM
- MIC ± SD [11]: 0.92 ± 0.23 µM
- MIC ± SD [12]: 2.1 µM
- MIC ± SD [13]: 0.11 µM
- MIC ± SD [14]: 0.16 µM
- MIC ± SD [15]: 0.93 ± 0.36 µM
- MIC ± SD [16]: 1.00 ± 0.36 µM
- leakage of GFP from recombinant cells [17]: dose-dependent leakage of GFP was observed
